Values quoted from earlier work as cited in US10988420B2, “Nanoparticles of layered double hydroxides containing non-polar compounds of plant origin, and method for the separation and selective release of said compounds” (UNIVERSIDAD DE GUADALAJARA, priority 2015, dated 2021).

Details: lycopene not encapsulated; prior art (Meléndez-Martinez 2004)

## CC(C)=CCC/C(C)=C/C=C/C(C)=C/C=C/C(C)=C/C=C/C=C(C)/C=C/C=C(C)/C=C/C=C(\C)CCC=C(C)C [lycopene]
  temperature at which lycopene is decomposed: 100-150 °C
